≈ marks a conversion by molar mass, not a printed value.

For the data set the following is noted: buffer; pH 7.4; 200.0 µM.
By solubility (kinetic) is commonly meant solubility judged after dilution from a stock solution rather than from solid. Regarding `COc1cc(NC(=O)COC(=O)CC2CC3CCC2C3)cc(OC)c1` (stereo not given), the solubility (kinetic) amounted to 14.6 µg/mL (≈ 42 µM).

`Cc1ccc(C(=O)Nc2cccc3cccnc23)cc1Br` gave a kinetic solubility of less than 0.4 µg/mL.

As for `CCOC(=O)c1cnc(/N=C/N(C)C)s1`, the kinetic solubility turned out to be 29.6 µg/mL (≈ 130 µM).

For the molecule `C=CCn1c(C)cc(C(=O)COC(=O)CCc2cc(OC)c(OC)c(OC)c2)c1C`, the solubility (kinetic) came to 31.8 µg/mL (≈ 76.5 µM).

For the molecule `CNC(=O)c1ccc(Nc2nc(-c3ccccc3)nc3ccccc23)cc1`, the solubility (kinetic) came out at 14.9 µg/mL (≈ 42 µM).

Molecule `CC(Sc1nc(N)cc(=O)[nH]1)C(=O)N1CCOCC1` (stereo not given) returned a kinetic solubility greater than 42.6 µg/mL.

Regarding `O=P(Nc1ccccc1)(Oc1ccccc1)Oc1ccccc1`, the kinetic solubility is less than 0.7 µg/mL.

On to `COc1ccc(S(=O)(=O)N2CCCC2)cc1Br`, for which the kinetic solubility came out at 33.9 µg/mL (≈ 106 µM).

On to `Cc1nc(C)c(N)c(=O)[nH]1.Cl`, for which the kinetic solubility was greater than 26.3 µg/mL.

Molecule `CCCc1c(C)nc(SCC(=O)C(C)(C)C)nc1OC(=O)N(C)C` came in with a solubility (kinetic) of 46.8 µg/mL (≈ 132 µM).

`COC(=O)c1ccc(OC)c(Cn2c(=O)n(C)c(=O)c3ccccc32)c1` showed a solubility (kinetic) of 2.2 µg/mL (≈ 6.21 µM).

With `CC(C)(C)C1CCC(N2CCN(c3ccccc3)CC2)CC1` (stereo not given), the solubility (kinetic) worked out at 0.5 µg/mL (≈ 1.66 µM).

The molecule `Cc1ccc(CNC(=O)c2ccc(OCC(C)C)cc2)n1C` displayed a solubility (kinetic) of 27.6 µg/mL (≈ 91.9 µM).

The molecule `COc1ccc(N2C(=O)NC(=O)/C(=C\c3ccccc3[N+](=O)[O-])C2=O)cc1` came in with a solubility (kinetic) of 54.4 µg/mL (≈ 148 µM).

For the molecule `CC1=C(C(=O)Nc2ccccc2)C(c2cccs2)NC(=O)N1` (stereo not given), the solubility (kinetic) came out at 41.3 µg/mL (≈ 132 µM).

For the molecule `O=C(CCN1CCN(c2ccccc2F)CC1)Nc1ccc(F)cc1`, the kinetic solubility was 10.4 µg/mL (≈ 30.1 µM).

`O=C1CNC(=O)/C1=C/c1ccc(Br)cc1` returned a solubility (kinetic) of 26.9 µg/mL (≈ 101 µM).

On to `NS(=O)(=O)c1ccc(CNC(=O)Cc2ccccc2F)cc1`, for which the solubility (kinetic) was greater than 48.4 µg/mL.

`O=C(COc1ncnc2ccccc12)NCCc1ccccc1`: the kinetic solubility amounted to 44.8 µg/mL (≈ 146 µM).

As to `COc1ccc(F)cc1S(=O)(=O)n1cnc2ccccc21`, the kinetic solubility stood at 28.3 µg/mL (≈ 92.4 µM).

`O=C(Nc1ccc(F)c(Cl)c1)N1CCCCCC1` registered a solubility (kinetic) of 5.8 µg/mL (≈ 21.4 µM).

As to `CC(C)=CC(=O)Nc1ccc(S(=O)(=O)Nc2ccccn2)cc1`, the solubility (kinetic) amounted to 46.2 µg/mL (≈ 139 µM).

The molecule `CC(=O)Nc1ccccc1NS(=O)(=O)c1ccccc1[N+](=O)[O-]` yielded a solubility (kinetic) of 47.4 µg/mL (≈ 141 µM).

`CCc1cccc2c1NC(=O)C21OCCO1` displayed a solubility (kinetic) of 27.5 µg/mL (≈ 125 µM).

`COc1ccccc1N(CC(=O)N1CCCC1)S(=O)(=O)c1cc([N+](=O)[O-])ccc1Cl`: the kinetic solubility was found to be 6.8 µg/mL (≈ 15 µM).

Molecule `Cn1c(NC(=O)c2ccc(F)cc2)c(-c2ccccn2)c(=O)c2ccccc21` returned a solubility (kinetic) of 6.2 µg/mL (≈ 16.6 µM).

In turn, `O=C(O)c1ccccc1C(=O)N1CCN(c2ncccn2)CC1` returned a solubility (kinetic) greater than 46.8 µg/mL.

Turning to `CCOP(=O)(OCC)/C(=N/OC(=O)c1ccc(OC)cc1)C(N)=O`, the kinetic solubility is greater than 53.7 µg/mL.

`COc1cc2[nH]c(C(=O)N3CCN(C)CC3)cc2c(OC)c1OC` displayed a solubility (kinetic) of 33.8 µg/mL (≈ 101 µM).

As for `O=C1C/C(=C\c2c(F)cccc2Cl)N2CCC1CC2`, the kinetic solubility is 39.7 µg/mL (≈ 142 µM).

`CSc1nsc(NC(=O)OCc2ccc(Cl)cc2)n1` came in with a kinetic solubility of 8.4 µg/mL (≈ 26.6 µM).

Molecule `Cc1c(-c2nc3ccccc3[nH]2)cnn1C` yielded a kinetic solubility greater than 31.8 µg/mL.

The molecule `CC(C)NC(=S)Nc1ccc2[nH]c(=O)[nH]c2c1` yielded a kinetic solubility greater than 37.5 µg/mL.

On to `O=C(CC1CCCCC1)NCc1nc(-c2ccccc2)no1`, for which the kinetic solubility worked out at 5.8 µg/mL (≈ 19.4 µM).

Molecule `O=C(O)c1cccc(S(=O)(=O)Nc2cccc3ccccc23)c1` had a solubility (kinetic) greater than 49.1 µg/mL.

Consider `O=C(Nc1nc2ccccc2s1)c1ccccc1`, for which the solubility (kinetic) is 3.1 µg/mL (≈ 12.2 µM).

Turning to `CCOc1ccccc1C(=O)NCC(=O)OCCOc1cccc(Cl)c1`, the kinetic solubility turned out to be 34 µg/mL (≈ 90 µM).

Turning to `O=[N+]([O-])c1ccc2c(c1)c1ccccc1n2CCO`, the solubility (kinetic) came out at 6.2 µg/mL (≈ 24.2 µM).

Turning to `CN(C(=O)c1coc(=O)c2ccccc12)c1ccccc1Cl`, the kinetic solubility is 44.2 µg/mL (≈ 141 µM).

`NC(=O)c1c(NC(=O)c2ccc(F)cc2Cl)sc2c1CCC2` registered a kinetic solubility of 1 µg/mL (≈ 2.95 µM).

Consider `CCC(Sc1nc2ccccc2o1)C(=O)O` (stereo not given), for which the solubility (kinetic) was 35.2 µg/mL (≈ 148 µM).

Take `O=C(c1ccc(Br)o1)N1CC=C(c2ccccc2)CC1`: the kinetic solubility was determined as 33 µg/mL (≈ 99.3 µM).

With `CC(=O)Nc1ccc(OCC(=O)NC(C)c2ccc(F)cc2)cc1` (stereo not given), the kinetic solubility is greater than 49.6 µg/mL.

For the molecule `CC(C)OP(=O)(OC(C)C)C(Nc1ccc(C(=O)O)cc1)c1ccccc1` (stereo not given), the solubility (kinetic) is greater than 58.7 µg/mL.

The molecule `Cc1ccc(CNc2ccc3c(c2)nc(C)n3C)cc1` showed a kinetic solubility of 38.3 µg/mL (≈ 144 µM).

Regarding `CCN(CC(=O)NC1CC1)S(=O)(=O)c1ccc(OC)cc1`, the solubility (kinetic) is greater than 46.9 µg/mL.

Turning to `CC(=O)N(Cc1cc(=O)[nH]c2ccccc12)c1ccccc1C`, the kinetic solubility was 43.6 µg/mL (≈ 142 µM).

The molecule `CC(=O)N(C)c1ccc(NC(=O)Nc2cccc3ccccc23)cc1` had a kinetic solubility of 1.3 µg/mL (≈ 3.9 µM).

In turn, `c1ccc(NC(c2ccccc2)c2ccncc2)cc1` (stereo not given) had a kinetic solubility of 25.5 µg/mL (≈ 97.9 µM).

`CCCOc1ccc(/C=C2/C(=O)ON=C2C)cc1OCC` came in with a kinetic solubility of 36.8 µg/mL (≈ 127 µM).

In turn, `O=C1C(Cl)=C(N2CCCCCC2)C(=O)N1c1ccc(Cl)cc1` registered a solubility (kinetic) of 26.2 µg/mL (≈ 77.2 µM).

`N#C/C(=C\c1cccc(O)c1)C(=O)Nc1ccc2c(c1)OCCO2` came in with a solubility (kinetic) of 2 µg/mL (≈ 6.21 µM).

`O=C(Nc1ccc2c(c1)OCO2)Nc1ccccc1F`: the kinetic solubility worked out at 2.7 µg/mL (≈ 9.84 µM).

With `CCOc1ncccc1-c1nc(-c2cccs2)no1`, the kinetic solubility amounted to 1.8 µg/mL (≈ 6.59 µM).

With `O=C(CNC(=O)c1ccc(N2CCCC2=O)cc1)Nc1ccc(F)c(F)c1F`, the solubility (kinetic) stood at 5.5 µg/mL (≈ 14.1 µM).

Take `Cc1cc(=O)[nH]c(SCc2cccc3ccccc23)n1`: the solubility (kinetic) was determined as 23.5 µg/mL (≈ 83.2 µM).

As for `Nc1nc(OCc2ccccc2)c2[nH]cnc2n1`, the kinetic solubility worked out at 35.9 µg/mL (≈ 149 µM).

As to `CNC(=S)NCCc1ccccc1`, the solubility (kinetic) was 25.6 µg/mL (≈ 132 µM).

`CCC(NC(=O)Cc1cccs1)c1ccccc1` (stereo not given) gave a kinetic solubility greater than 38.9 µg/mL.

As for `CN1Cc2c(N3CCOCC3)nc3sc(C#N)c(N)c3c2CC1(C)C`, the solubility (kinetic) turned out to be 15 µg/mL (≈ 42 µM).

In the case of `Cc1cc(C)cc(C(=O)NCCN2CCOCC2)c1`, the kinetic solubility was greater than 39.4 µg/mL.

As for `Cc1cc(C)c(S(=O)(=O)c2cc(F)ccc2C)c(Cl)n1`, the kinetic solubility came out at 44.6 µg/mL (≈ 142 µM).

`CCOc1ccccc1C(=O)NCC(=O)N(C)Cc1ccccc1C`: the kinetic solubility is greater than 51.1 µg/mL.

The molecule `N#Cc1nc(-c2ccco2)oc1NCc1ccccc1Cl` registered a kinetic solubility of 1.1 µg/mL (≈ 3.67 µM).

Turning to `Cc1cc(=O)n2c3ccccc3n(C)c2n1`, the kinetic solubility was greater than 32 µg/mL.

The molecule `Cc1cc(C)c(S(=O)(=O)NCc2csc(C)n2)c(C)c1` returned a kinetic solubility greater than 46.6 µg/mL.

The molecule `O=C(c1ccccc1)N1CCCN(c2nccc(C(F)(F)F)n2)CC1` yielded a kinetic solubility of 44.8 µg/mL (≈ 128 µM).

Molecule `COc1ccc(Cl)cc1NC(=O)Cn1c(C)csc1=O` registered a kinetic solubility of 18.3 µg/mL (≈ 58.5 µM).

As to `O=[N+]([O-])c1cccc2c1ccc1ncccc12`, the solubility (kinetic) turned out to be 1.3 µg/mL (≈ 5.8 µM).

In turn, `O=C(/C=C/c1ccc(S(=O)(=O)N2CCOCC2)cc1)Nc1ccc(F)c(F)c1F` had a solubility (kinetic) of 6.9 µg/mL (≈ 16.2 µM).

On to `O=C(CSc1ncn[nH]1)NCCc1ccc(Cl)cc1`, for which the solubility (kinetic) was greater than 44.5 µg/mL.

The molecule `CCOc1ccc(CCNC(=O)c2cnc(C)cn2)cc1OCC` had a solubility (kinetic) greater than 49.4 µg/mL.

The molecule `O=Cc1cccc(OC(=O)Nc2ccccc2)c1` yielded a solubility (kinetic) of 29.2 µg/mL (≈ 121 µM).

With `OCc1c[nH]c2ccccc12`, the kinetic solubility came out at 7 µg/mL (≈ 47.6 µM).

For the molecule `CCOC(=O)c1ccc(NC(=O)c2ccco2)cc1`, the kinetic solubility was greater than 38.9 µg/mL.
